Reference: ChEMBL document CHEMBL1777743, “Macrolactin W, a new antibacterial macrolide from a marine Bacillus sp” (2011)
Converted amounts (≈) assume the structure as drawn. The source made the active and inactive calls. No cut-off for these calls is given here.

Key:
ACHN = assay: Cytotoxicity against human ACHN at 10 ug/ml; assay type: functional, cell-based
MDA-MB-231 = assay: Cytotoxicity against human MDA-MB-231 at 10 ug/ml; assay type: functional, cell-based
NUGC-3 = assay: Cytotoxicity against human NUGC3 at 10 ug/ml; assay type: functional, cell-based
Pseudomonas aeruginosa = assay: Antibacterial activity against Pseudomonas aeruginosa KCTC 2592 after 18 hrs by serial dilution technique; assay type: functional; details: KCTC 2592, 18 h
PC-3 = assay: Cytotoxicity against human PC3 at 10 ug/ml; assay type: functional, cell-based
HCT-15 = assay: Cytotoxicity against human HCT15 at 10 ug/ml; assay type: functional, cell-based
Bacillus subtilis = assay: Antibacterial activity against Bacillus subtilis KCTC 1021 after 18 hrs by serial dilution technique; assay type: functional; details: KCTC 1021, 18 h
NCI-H23 = assay: Cytotoxicity against human NCI-H23 at 10 ug/ml; assay type: functional, cell-based
Escherichia coli = assay: Antibacterial activity against Escherichia coli KCTC 1923 after 18 hrs by serial dilution technique; assay type: functional; details: KCTC 1923, 18 h
Staphylococcus aureus = assay: Antibacterial activity against Staphylococcus aureus KCTC 1916 after 18 hrs by serial dilution technique; assay type: functional; details: KCTC 1916, 18 h

C[C@H]1CCC/C=C\C=C\[C@H](O)C[C@@H](O)C/C=C\C=C\[C@@H](OC(=O)CCC(=O)O[C@H]2O[C@@H](CO)[C@H](O)[C@@H](O)[C@@H]2O)C/C=C/C=C\C(=O)O1 [MACROLACTIN W]
Activity (ACHN): inactive
Activity (MDA-MB-231): inactive
Activity (NUGC-3): inactive
MIC (Pseudomonas aeruginosa): 64 µg/mL (≈ 96.3 µM)
Activity (PC-3): inactive
Activity (HCT-15): inactive
MIC (Bacillus subtilis): 64 µg/mL (≈ 96.3 µM)
Activity (NCI-H23): inactive
MIC (Escherichia coli): 64 µg/mL (≈ 96.3 µM)
MIC (Staphylococcus aureus): 64 µg/mL (≈ 96.3 µM)
